Measured values taken from US8669054B2, “Marker for gastric cancer and method for detecting gastric cancer” (The Chinese University of Hong Kong, priority 2010, dated 2014).

Tested on: PAX5 gene expression in methylated GC and CRC cell lines
Experiment: Demethylation treatment with 5-Aza; PAX5 expression by semiquantitative RT-PCR
Assay type: cell-based, human
Conditions: 2 μM 5-Aza for 5 days; AGS, MKN28, KatoIII, HCT116, SW620 and SW480
Experimental: Semiquantitative RT-PCR was performed in a total volume of 25 μL reaction containing GeneAmp 1×PCR Buffer II (Applied Biosystems), 2.5 mM MgCl2, 200 μM each of dNTP, 200 nM each of primers, 0.5 U of AmpliTaq Gold DNA polymerase (Applied Biosystems) and 30˜50 ng cDNA. […] The PCR bands were visualized under ultraviolet light and photographed. The expression of the target gene was normalized by the expression of house keeping gene β-actin, which served as an internal control. […] Cells were then treated with 2 μM 5-aza-2′-deoxycytidine (“5-Aza”) (Sigma-Aldrich) for 5 days. The 5-Aza was replenished every day.

## Nc1ncn([C@H]2C[C@H](O)[C@@H](CO)O2)c(=O)n1 [5-Aza, 5-aza-2′-deoxycytidine]
  PAX5 gene expression after 5-Aza demethylation treatment (RT-PCR): restore expression
